Reference: patent publication US5654296A, “Condensed heterocyclic compounds, their production and use” (priority 1994, dated 1997)
Counter-ions that a name gives are not always drawn.

Experiments:
[1] = molecular target: T1, GnRH receptors (rat pituitary anterior lobe membrane fraction) (Rattus norvegicus, UniProt P30969); experiment: 125I-leuprolerin GnRH receptor binding inhibition test, rat pituitary anterior lobe membrane fraction; conditions: 4° C., 90 minutes, read-out: Binding inhibitory activity (IC50 μM) Rat
T1 construct: the anterior lobe of the pituitary gland was isolated and washed with ice-cooled homogenate buffer; from tissue; host or cells: anterior lobe of the pituitary gland, male Wistar rats (8 weeks old), membrane fraction
T1 sequence (P30969 1-327): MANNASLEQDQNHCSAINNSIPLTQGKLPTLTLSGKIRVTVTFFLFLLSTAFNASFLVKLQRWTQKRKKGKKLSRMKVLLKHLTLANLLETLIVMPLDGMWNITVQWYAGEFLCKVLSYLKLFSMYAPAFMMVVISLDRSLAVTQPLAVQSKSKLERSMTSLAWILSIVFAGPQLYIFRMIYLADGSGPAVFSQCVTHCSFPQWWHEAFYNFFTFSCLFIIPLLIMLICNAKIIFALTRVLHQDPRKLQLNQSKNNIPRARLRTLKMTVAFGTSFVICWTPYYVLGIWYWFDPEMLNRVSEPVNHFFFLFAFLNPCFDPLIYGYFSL
Method: Ten (10) μl of 3×10^4 M aqueous leuprolerin solution and 10 μl of 0.01 mg/ml lactoperoxidase were taken in a tube and 10 μl of Na^125 I solution (37 MBq) was added. After stirring, 10 μl of 0.001% H2 O2 was added and the reaction was conducted at room temperature for 20 minutes. Then, 700 μl of 0.05% TFA solution was added to the tube to terminate the reaction and the reaction mixture was purified by reverse-phase HPLC. The HPLC conditions are shown below. ^125 I-leuprolerin was eluted after a retention time of 26-27 minutes. (B) Preparation of a Rat Pituitary Anterior Lobe Membrane Fraction Containing GnRH Receptors […] The pituitary tissue was floated in 2 ml of the homogenate buffer and homogenized using a Polytron homogenizer. The homogenate was centrifuged at 700×G for 15 minutes. The supernatant was taken in an ultracentrifuge tube and centrifuged at 100,000×G for 1 hour to provide a membrane fraction pellet. […] The membrane fraction recovered as a pellet was resuspended in 10 ml of assay buffer, divided into portions, preserved at -80° C. and thawed when needed. […] For the rat and human membrane fractions prepared in (B) and (D), each membrane fraction was diluted with assay buffer to a concentration of 200 μg/ml and distributed in 188 μl portions into tubes. As to the bovine membrane fraction prepared in (C), the membrane fraction was diluted with assay buffer to 750 μg/ml and distributed in 188 μl portions into tubes. […] Where the rat or bovine pituitary anterior lobe membrane fraction was used, the reaction was conducted at 4° C. for 90 minutes. Where the membrane fraction of the CHO with human GnRH receptors expressed was used, the reaction was carried out at 25° C. for 60 minutes. […] After filtration, the radioactivity of ^125 I-leuprolerin remaining on the filter was measured with a γ-counter. The expression (TB-SB)/(TB-NSB)×100 (where SB=radioactivity with the compound added, TB=maximum bound radioactivity, NSB=nonspecifically bound radioactivity) was calculated to find the binding inhibition rate of each test compound.

human GnRH receptors = molecular target: T2, human GnRH receptors (Homo sapiens, UniProt P30968); experiment: 125I-leuprolerin GnRH receptor binding inhibition test, human (CHO cell membrane fraction); conditions: human GnRH receptors expressed in CHO cells, 25° C., 60 minutes, read-out: Binding inhibitory activity (IC50 μM) Human
T2 construct: expressed in transfected cells; host or cells: CHO (Chinese hamster ovary) cells, membrane fraction
T2 sequence (P30968 1-328): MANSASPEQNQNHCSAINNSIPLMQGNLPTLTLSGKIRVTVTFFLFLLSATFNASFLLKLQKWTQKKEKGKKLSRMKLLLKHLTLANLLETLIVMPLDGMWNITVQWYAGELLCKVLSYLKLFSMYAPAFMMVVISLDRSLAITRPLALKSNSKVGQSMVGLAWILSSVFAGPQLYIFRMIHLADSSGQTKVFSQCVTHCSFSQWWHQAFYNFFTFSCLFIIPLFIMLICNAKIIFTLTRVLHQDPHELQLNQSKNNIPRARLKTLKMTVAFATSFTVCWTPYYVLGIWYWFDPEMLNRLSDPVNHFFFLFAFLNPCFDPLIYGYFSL
Method: Ten (10) μl of 3×10^4 M aqueous leuprolerin solution and 10 μl of 0.01 mg/ml lactoperoxidase were taken in a tube and 10 μl of Na^125 I solution (37 MBq) was added. After stirring, 10 μl of 0.001% H2 O2 was added and the reaction was conducted at room temperature for 20 minutes. Then, 700 μl of 0.05% TFA solution was added to the tube to terminate the reaction and the reaction mixture was purified by reverse-phase HPLC. The HPLC conditions are shown below. ^125 I-leuprolerin was eluted after a retention time of 26-27 minutes. (D) Preparation of a CHO (Chinese Hamster Ovarian) Cell Membrane Fraction Containing Human GnRH Receptors […] To the cell pellet was added 10 ml of cell homogenate buffer (10 mM NaHCO3, 5 mM EDTA, pH 7.5) and the mixture was homogenized using a Polytron homogenizer. The homogenate was centrifuged at 400×G for 15 minutes. The supernatant was taken in an ultracentrifuge tube and centrifuged at 100,000×G for 1 hour to provide a membrane fraction pellet. […] After filtration, the radioactivity of ^125 I-leuprolerin remaining on the filter was measured with a γ-counter. The expression (TB-SB)/(TB-NSB)×100 (where SB=radioactivity with the compound added, TB=maximum bound radioactivity, NSB=nonspecifically bound radioactivity) was calculated to find the binding inhibition rate of each test compound.

| SMILES | IC50 [1] [µM] | IC50 (human GnRH receptors) [µM] |
| --- | --- | --- |
| COc1ccc2c(c1)CCC1(CCCCN1CCCC1(c3ccccc3)COCc3ccccc31)C2 (stereo not shown) [Example I-36, 3,4-Dihydro-6-methoxy-1'-[3-(4-phenylisochroman-4-yl)propyl]spiro[naphthalene-2(1H),2'-piperidine] hydrochloride] | 0.6 |  |
| c1ccc(C2(CCCN3CCCCC34CCc3ccccc3C4)COCc3ccccc32)cc1 (stereo not shown) [Example I-35, 3,4-Dihydro-1'-[3-(4-phenylisochroman-4-yl)propyl]spiro[naphthalene-2(1H),2'-piperidine] hydrochloride] | 0.7 |  |
| c1ccc(CCNCCCC2(c3ccccc3)COCc3ccccc32)cc1 (stereo not drawn) [Example I-24, 4-[3-(β-Phenethylamino)propyl]-4-phenylisochroman hydrochloride] | 0.9 |  |
| COC(=O)c1cccc(CNCCCC2(c3ccccc3)COCc3ccccc32)c1 (stereo not drawn) [Example I-45, Methyl α-[3-(4-Phenylisochroman-4-yl)propylamino]-m-toluate hydrochloride] | 0.5 | 6 |
| COc1cc2c(cc1OC)CC1(CCCCN1CCCCC1(c3ccccc3)COCc3ccccc31)CC2 (stereo not shown) [Example I-52, 3,4-Dihydro-6,7-dimethoxy-1'-[4-(4-phenylisochroman-4-yl)butyl]spiro[naphthalene-2(1H),2'-piperidine] hydrochloride] | 0.03 | 6 |
